Experimental data as given in patent publication US20080234340A1, “Synthesis and characterization of polymorph form II of 4-(2-(4,4-dimethyl-2-oxooxazolidin-3-YL)thiazol-4-YL)benzonitrile” (Wyeth, priority 2007, published 2008).

Key:
[1] = biological target: T1, progesterone receptor (PR) (Homo sapiens, UniProt P06401); assay: PR whole cell binding in T47D cells with 3H-progesterone as labeled ligand; conditions: live, intact T47D cells; 3H-progesterone labeled ligand
T1 construct: in live, intact (whole) cells using the human breast carcinoma T47D cell line; endogenous in cells; host or cells: T47D human breast carcinoma cells
T1 sequence (P06401 1-933): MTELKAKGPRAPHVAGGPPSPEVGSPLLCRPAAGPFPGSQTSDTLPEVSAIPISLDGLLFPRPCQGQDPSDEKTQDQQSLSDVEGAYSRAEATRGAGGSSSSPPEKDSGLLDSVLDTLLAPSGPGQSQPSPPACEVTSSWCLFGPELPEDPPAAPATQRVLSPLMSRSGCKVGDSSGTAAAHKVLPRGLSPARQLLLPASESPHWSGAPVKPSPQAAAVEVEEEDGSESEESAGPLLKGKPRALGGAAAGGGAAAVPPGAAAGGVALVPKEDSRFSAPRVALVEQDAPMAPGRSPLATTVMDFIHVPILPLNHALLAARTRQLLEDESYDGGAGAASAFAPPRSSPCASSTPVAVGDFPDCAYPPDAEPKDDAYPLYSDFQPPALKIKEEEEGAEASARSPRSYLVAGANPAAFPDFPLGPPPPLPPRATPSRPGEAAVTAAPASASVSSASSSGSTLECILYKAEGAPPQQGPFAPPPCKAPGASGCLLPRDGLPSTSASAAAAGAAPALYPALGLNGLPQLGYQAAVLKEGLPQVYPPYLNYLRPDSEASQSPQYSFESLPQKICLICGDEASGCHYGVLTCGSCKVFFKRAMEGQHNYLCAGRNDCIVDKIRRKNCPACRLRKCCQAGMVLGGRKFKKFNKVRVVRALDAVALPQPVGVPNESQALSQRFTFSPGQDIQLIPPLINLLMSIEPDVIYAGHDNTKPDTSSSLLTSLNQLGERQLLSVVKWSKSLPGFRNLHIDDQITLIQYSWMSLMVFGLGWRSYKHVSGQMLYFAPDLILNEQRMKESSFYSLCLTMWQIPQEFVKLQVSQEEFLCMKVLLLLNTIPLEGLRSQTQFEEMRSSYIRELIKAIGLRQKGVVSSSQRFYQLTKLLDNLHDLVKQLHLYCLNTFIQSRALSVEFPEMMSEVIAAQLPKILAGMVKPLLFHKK
Description: (§1) The compound 4-(2-(4,4-dimethyl-2-oxooxazolidin-3-yl)thiazol-4-yl)benzonitrile has shown activity for modulating PR activity in assays to identify progestins or antiprogestins by (a) determining effect on alkaline phosphatase activity in T47D cells or (b) evaluating the progesterone receptor (PR) binding activity in live, intact (whole) cells using the human breast carcinoma T47D cell line and ^3H-progesterone as the labeled ligand (data presented in Table below).

[2] = biological target: T1, progesterone receptor (PR); assay: T47D alkaline phosphatase activity assay to identify progestins or antiprogestins; type: cell-based; conditions: T47D cells
Description: as §1

[3] = Solubility in solvent at room temperature, centrifuged after 24 hours, supernatant assayed; type: physicochemical
Method: In another embodiment, the solvent is 2% Tween® 80 reagent in water, wherein Tween® 80 is a polyoxyethylene (20) sorbitan monooleate. One of skill in the art would readily be able to measure the solubility of Form II using techniques known in the art. Typically, the solubility was measured by adding Form II to a solvent at room temperature, centrifuging the solution after 24 hours, and assaying the supernatant. This increased solubility is observed when Form II is immersed in water.
In this example, the solubility of polymorph Form II of 4-(2-(4,4-dimethyl-2-oxooxazolidin-3-yl)thiazol-4-yl)benzonitrile in water is measured.

[4] = Hygroscopicity (ability to absorb water/moisture from the air); type: physicochemical; conditions: normal, atmospheric conditions
Description: One of skill in the art would readily be able to measure the hygroscopicity of Form II using techniques known in the art including, without limitation, dynamic vapor sorption (DVS) at relative humidities ranging from 0 to 100%. This decreased hygroscopic property of Form II thereby permits longer shelf life and storage of the solid compound in comparison to Form I.

Row | SMILES | Ki [1] [nM] | IC50 [2] [nM] | Solubility compared with Form I ([3]; solvents such as water and hydrophilic non-ionic surfactants (2% Tween 80 in water), room temperature, 24 hours) | Solubility in water relative to Form I ([3]; water) [times] | Hygroscopicity compared with Form I [4]
1 | CC1(C)COC(=O)N1c1nc(-c2ccc(C#N)cc2)cs1 [4-(2-(4,4-dimethyl-2-oxooxazolidin-3-yl)thiazol-4-yl)benzonitrile] | 4.9 | 3.1 | – | – | –
2 | CC1(C)COC(=O)N1c1nc(-c2ccc(C#N)cc2)cs1 [Form II, 4-(2-(4,4-dimethyl-2-oxooxazolidin-3-yl)thiazol-4-yl)benzonitrile] | – | – | more soluble | 4 | less hygroscopic than Form I
